Measurements: patent US12005092B2, “Herbal composition for breast cancer prevention” (priority 2021, dated 2024)
“And” between values parts separate entries of the source, which are not always exact repeats. Identical values can stand only once.

System: MCF-7 cells
Assay: MCF-7 cell viability, PrestoBlue Cell Viability Reagent
Assay type: cell-based, human
Conditions: individual ingredients, MCF-7, 2 mg/0.2 ml
Experimental: In order to assess this activity, a well-established line of breast cancer cells used in cancer research was selected. MCF-7 is a widely studied cancer cell line derived from breast adenocarcinoma, it was proven to be a suitable model cell line for breast cancer investigations worldwide, including those regarding anticancer drugs.
The cells were cultured with growth medium and seeded in two 96 well plates incubated at 37 Celsius. The HCBCP solution was prepared by dissolving the powder in DPBS as per Table 1, below.
The obtained solutions were sterilized by 0.22-micron filtration.
An amount of 0.2 ml was applied in each test tube providing 2 mg of HCBCP. […]
After incubation period of 24 and 48 hours, cell viability was measured using PrestoBlue™ Cell Viability Reagent, according to manufacturer instructions.
Fluorescence was detected at excitation wavelength of 560 nm and an emission of 590 nm, using TECAN SPARK 10M microplate reader, at 24 and 48 hours after application. The fluorescence data is expressed as percentage of cell viability (%) compared to vehicle control.
Percentage of cell viability was calculated using the following formula: [(fluorescence of treated cells—mean background fluorescence)/(fluorescence of cells with vehicle control—mean background fluorescence)]×100, at 24 and 48 Hours after Application. […]

O=c1c(O)c(-c2ccc(O)c(O)c2)oc2cc(O)cc(O)c12 [BF 2 Q, Quercetin] was tested, and the “Mean cell viability (%)” value (24 h (Table 3)) was 42.10% and the “Cell Viability (%)” value (24 h, single replicates (Table 3)) was 44.43% and 44.39% and 40.25% and 39.33%.
